Measurements published in ChEMBL document CHEMBL1137197, “Discovery of thiadiazoles as a novel structural class of potent and selective PDE7 inhibitors. Part 1: design, synthesis and structure-activity relationship studies” (Bioorg Med Chem Lett, 2004).
Converted amounts (≈) assume the structure as drawn. One block for each compound: values may come before it.

Tests used:
Phosphodiesterase 1 = Phosphodiesterase 1 (Homo sapiens, UniProt P54750+Q01064+Q14123); assay: Inhibition of human Phosphodiesterase 1 purified from THP-1 cells; type: cell-free
[1] = molecular target: cGMP-specific 3',5'-cyclic phosphodiesterase (Homo sapiens, UniProt O76074); assay: Inhibition of human Phosphodiesterase 5 purified from MCF-7 cells; type: cell-free, MCF7
[2] = molecular target: High affinity 3',5'-cyclic-AMP phosphodiesterase 7A (Homo sapiens, UniProt Q13946); assay: Inhibition of human Phosphodiesterase 7A1 expressed in baculovirus infected Sf9 cells
[3] = molecular target: 3',5'-cyclic-AMP phosphodiesterase 4D (Homo sapiens, UniProt Q08499); assay: Inhibition of human Phosphodiesterase 4D3 expressed in baculovirus infected Sf9 cells
[4] = molecular target: cGMP-inhibited 3',5'-cyclic phosphodiesterase 3A (Homo sapiens, UniProt Q14432); assay: Inhibition of human Phosphodiesterase 3A3 expressed in baculovirus infected Sf9 cells
[5] = Solubility at 7.4 pH; type: physicochemical; details: pH 7.4

cGMP-inhibited 3',5'-cyclic phosphodiesterase 3A, sequence (Q14432 whole entry): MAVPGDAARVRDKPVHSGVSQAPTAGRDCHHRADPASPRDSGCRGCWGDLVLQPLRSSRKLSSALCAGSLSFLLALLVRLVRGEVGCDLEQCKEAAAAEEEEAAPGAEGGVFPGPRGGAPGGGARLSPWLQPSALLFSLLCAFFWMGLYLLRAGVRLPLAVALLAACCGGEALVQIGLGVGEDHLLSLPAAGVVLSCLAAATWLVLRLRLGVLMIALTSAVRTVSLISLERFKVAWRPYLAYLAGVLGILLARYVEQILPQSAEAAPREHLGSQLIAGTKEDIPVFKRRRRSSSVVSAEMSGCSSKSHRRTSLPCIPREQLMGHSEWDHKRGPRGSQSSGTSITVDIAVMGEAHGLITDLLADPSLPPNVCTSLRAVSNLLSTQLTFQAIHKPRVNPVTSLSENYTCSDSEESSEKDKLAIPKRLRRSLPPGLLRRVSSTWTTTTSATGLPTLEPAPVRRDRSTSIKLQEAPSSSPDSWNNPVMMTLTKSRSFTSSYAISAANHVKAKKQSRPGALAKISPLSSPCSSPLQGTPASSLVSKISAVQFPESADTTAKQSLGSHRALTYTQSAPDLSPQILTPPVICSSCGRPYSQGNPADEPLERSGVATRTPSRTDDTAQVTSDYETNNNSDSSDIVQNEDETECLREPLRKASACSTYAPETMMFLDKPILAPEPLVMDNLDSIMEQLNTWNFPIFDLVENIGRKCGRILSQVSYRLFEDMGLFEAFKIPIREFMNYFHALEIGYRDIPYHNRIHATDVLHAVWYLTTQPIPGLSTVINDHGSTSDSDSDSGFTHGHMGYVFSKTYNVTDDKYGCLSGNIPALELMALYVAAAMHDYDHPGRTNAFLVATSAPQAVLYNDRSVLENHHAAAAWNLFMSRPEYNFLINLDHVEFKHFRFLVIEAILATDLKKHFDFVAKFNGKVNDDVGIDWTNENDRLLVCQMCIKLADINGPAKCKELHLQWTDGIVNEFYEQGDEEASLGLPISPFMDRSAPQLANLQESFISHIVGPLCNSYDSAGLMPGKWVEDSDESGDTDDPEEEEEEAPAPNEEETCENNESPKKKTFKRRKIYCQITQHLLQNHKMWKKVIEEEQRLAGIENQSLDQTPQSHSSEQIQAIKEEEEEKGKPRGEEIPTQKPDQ
High affinity 3',5'-cyclic-AMP phosphodiesterase 7A, sequence (Q13946 whole entry): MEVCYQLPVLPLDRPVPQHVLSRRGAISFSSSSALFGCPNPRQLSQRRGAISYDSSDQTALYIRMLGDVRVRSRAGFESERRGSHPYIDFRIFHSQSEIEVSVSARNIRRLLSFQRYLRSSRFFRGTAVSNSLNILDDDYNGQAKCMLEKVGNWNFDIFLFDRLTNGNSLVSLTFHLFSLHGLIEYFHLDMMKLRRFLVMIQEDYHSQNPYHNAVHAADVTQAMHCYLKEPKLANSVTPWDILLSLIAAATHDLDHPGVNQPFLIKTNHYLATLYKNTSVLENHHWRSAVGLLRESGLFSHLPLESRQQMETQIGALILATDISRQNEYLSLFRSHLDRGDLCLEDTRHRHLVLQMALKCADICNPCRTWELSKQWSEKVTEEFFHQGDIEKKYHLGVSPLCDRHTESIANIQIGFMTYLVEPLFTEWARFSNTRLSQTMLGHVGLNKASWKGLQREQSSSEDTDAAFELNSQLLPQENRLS
3',5'-cyclic-AMP phosphodiesterase 4D, sequence (Q08499 whole entry): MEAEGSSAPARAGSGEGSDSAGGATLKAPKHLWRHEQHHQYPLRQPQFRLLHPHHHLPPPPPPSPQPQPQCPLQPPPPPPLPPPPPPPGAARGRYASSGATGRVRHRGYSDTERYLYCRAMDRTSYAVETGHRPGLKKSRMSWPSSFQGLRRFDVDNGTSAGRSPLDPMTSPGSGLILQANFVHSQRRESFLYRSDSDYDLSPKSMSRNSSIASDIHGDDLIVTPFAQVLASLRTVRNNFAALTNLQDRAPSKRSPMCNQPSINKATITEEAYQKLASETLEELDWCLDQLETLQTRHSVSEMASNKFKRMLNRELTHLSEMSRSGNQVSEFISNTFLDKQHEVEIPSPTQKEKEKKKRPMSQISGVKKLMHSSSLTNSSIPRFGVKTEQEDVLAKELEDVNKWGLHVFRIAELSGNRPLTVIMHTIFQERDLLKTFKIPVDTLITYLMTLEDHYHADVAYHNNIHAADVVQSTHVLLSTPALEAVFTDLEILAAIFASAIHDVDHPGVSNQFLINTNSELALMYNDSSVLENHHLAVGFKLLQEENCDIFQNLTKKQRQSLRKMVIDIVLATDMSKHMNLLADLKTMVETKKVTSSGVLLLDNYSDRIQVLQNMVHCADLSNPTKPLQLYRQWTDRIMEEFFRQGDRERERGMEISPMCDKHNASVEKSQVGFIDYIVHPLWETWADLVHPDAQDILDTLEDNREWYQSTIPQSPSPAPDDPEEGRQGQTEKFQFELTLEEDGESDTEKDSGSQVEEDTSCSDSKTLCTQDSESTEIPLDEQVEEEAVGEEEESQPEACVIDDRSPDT

SMILES: Cn1nc(-c2ccc(Cl)cc2)s/c1=N\c1cccc(C(=O)O)c1O
- IC50 (Phosphodiesterase 1): 9.28 µM
- IC50 [1]: 5.18 µM
- IC50 [2]: 0.26 µM
- IC50 [3]: 14.2 µM
- IC50 [4]: 9.83 µM

SMILES: Cn1nc(-c2ccc(Cl)cc2)s/c1=N\c1ccc(F)c(C(=O)O)c1
- IC50 (Phosphodiesterase 1): 21.58 µM
- IC50 [1]: 17.9 µM
- IC50 [2]: 0.16 µM
- IC50 [3]: 39.7 µM
- IC50 [4]: 17 µM

SMILES: Cn1nc(-c2ccc(Cl)cc2)s/c1=N\C1CCC1
- IC50 [2]: 4.8 µM
- IC50 [3]: 6.3 µM

SMILES: Cn1nc(-c2ccc(Cl)cc2)s/c1=N\C1CCCC1
- IC50 [2]: 3.08 µM
- IC50 [3]: 81.5 µM

SMILES: CN(C)CCN(C)C(=O)c1ccc(-c2nn(C)/c(=N/C3CCCCC3)s2)cc1
- IC50 [2]: 0.47 µM
- IC50 [3]: > 101 µM

SMILES: Cn1nc(-c2ccc(S(N)(=O)=O)cc2)s/c1=N\C1CCCCC1
- IC50 [2]: 0.15 µM
- IC50 [3]: 11 µM

SMILES: Cn1nc(-c2ccc(Cl)cc2)s/c1=N\c1ccc(C(=O)O)cc1
- IC50 (Phosphodiesterase 1): 28.93 µM
- IC50 [1]: 40.3 µM
- IC50 [2]: 4.6 µM
- IC50 [3]: > 101 µM
- IC50 [4]: 30.7 µM

SMILES: CCC/N=c1\sc(-c2ccc(Cl)cc2)nn1C
- IC50 [2]: 7.7 µM
- IC50 [3]: 26 µM

SMILES: Cn1nc(-c2ccc(C(N)=O)c(O)c2)s/c1=N\C1CCCCC1
- IC50 [2]: 0.12 µM
- IC50 [3]: 19.3 µM

SMILES: Cn1nc(-c2ccc(C(=O)NCCN3CCOCC3)cc2)s/c1=N\C1CCCCC1
- solubility [5]: 17 µg/mL (≈ 39.6 µM)
- IC50 [2]: 0.03 µM
- IC50 [3]: 8.77 µM

SMILES: Cn1nc(-c2ccc(Cl)cc2)s/c1=N\C1CCCCC1
- IC50 [2]: 1.5 µM
- IC50 [3]: 57 µM

SMILES: Cn1nc(-c2cccc(Cl)c2)s/c1=N\C1CCCCC1
- IC50 [3]: > 101 µM

SMILES: Cn1nc(-c2ccc(Cl)cc2)s/c1=N\c1ccccc1
- IC50 [2]: 2.95 µM
- IC50 [3]: 38 µM

SMILES: Cn1nc(-c2ccc(Cl)cc2)s/c1=N\c1c(O)cccc1C(=O)O
- IC50 (Phosphodiesterase 1): 28.84 µM
- IC50 [1]: 18.8 µM
- IC50 [2]: 1.31 µM
- IC50 [3]: 58.2 µM
- IC50 [4]: 49.4 µM

SMILES: Cn1nc(-c2ccc(Cl)cc2)s/c1=N\c1cccc(C(N)=O)c1
- IC50 (Phosphodiesterase 1): 7.83 µM
- IC50 [1]: > 101 µM
- IC50 [2]: 1.63 µM
- IC50 [3]: 44.5 µM
- IC50 [4]: 2.65 µM

SMILES: Cn1nc(-c2ccc(S(C)(=O)=O)cc2)s/c1=N\C1CCCCC1
- IC50 [2]: 0.13 µM
- IC50 [3]: 25 µM

SMILES: COc1cc(-c2nn(C)/c(=N/C3CCCCC3)s2)ccc1C(N)=O
- IC50 [2]: 0.47 µM
- IC50 [3]: > 101 µM

SMILES: Cn1nc(-c2ccc(Cl)cc2)s/c1=N\c1cccc(-c2nn[nH]n2)c1
- IC50 (Phosphodiesterase 1): 3.34 µM
- IC50 [1]: 7 µM
- IC50 [2]: 0.08 µM
- IC50 [3]: 4.26 µM
- IC50 [4]: 1.71 µM

SMILES: Cn1nc(-c2ccc(O)cc2)s/c1=N\C1CCCCC1
- IC50 [3]: 12.2 µM

SMILES: Cn1nc(-c2ccc(Cl)cc2)s/c1=N\c1ccccc1O
- IC50 (Phosphodiesterase 1): > 101 µM
- IC50 [1]: > 101 µM
- IC50 [2]: 5.3 µM
- IC50 [3]: > 101 µM
- IC50 [4]: > 101 µM

SMILES: Cn1nc(-c2ccc(Cl)cc2)s/c1=N\c1cccc(O)c1
- IC50 (Phosphodiesterase 1): 9.81 µM
- IC50 [1]: 10.9 µM
- IC50 [2]: 1.8 µM
- IC50 [3]: > 101 µM
- IC50 [4]: 6.13 µM

SMILES: Cn1nc(-c2ccc(Cl)cc2)s/c1=N\c1cccc(C(=O)O)c1
- IC50 (Phosphodiesterase 1): 16.38 µM
- IC50 [1]: 7.27 µM
- IC50 [2]: 0.14 µM
- IC50 [3]: 21.3 µM
- IC50 [4]: 7.47 µM

SMILES: Cn1nc(-c2ccc(Cl)c(S(N)(=O)=O)c2)s/c1=N\C1CCCCC1
- IC50 [2]: 0.06 µM
- IC50 [3]: 5.9 µM

SMILES: Cc1nc(N)c2ccc(-c3nn(C)/c(=N/C4CCCCC4)s3)cc2n1
- IC50 [2]: 0.0039 µM
- IC50 [3]: 92.3 µM

SMILES: Cn1nc(-c2ccc(Cl)cc2)s/c1=N\c1cccc(-c2noc(O)n2)c1
- IC50 (Phosphodiesterase 1): 3.56 µM
- IC50 [1]: 7.56 µM
- IC50 [2]: 0.44 µM
- IC50 [3]: 5.63 µM
- IC50 [4]: 1.89 µM

SMILES: Cn1nc(-c2ccc(Cl)cc2)s/c1=N\c1cccc(CC(=O)O)c1
- IC50 (Phosphodiesterase 1): 40.34 µM
- IC50 [1]: 20.2 µM
- IC50 [2]: 2.13 µM
- IC50 [3]: 23 µM
- IC50 [4]: 8.57 µM

SMILES: Cn1nc(-c2ccc(Cl)cc2)s/c1=N\c1ccc(O)cc1
- IC50 (Phosphodiesterase 1): > 101 µM
- IC50 [1]: > 101 µM
- IC50 [2]: 1.7 µM
- IC50 [3]: 13 µM
- IC50 [4]: 101 µM

SMILES: Cn1nc(-c2ccccc2O)s/c1=N\C1CCCCC1
- IC50 [2]: 6.4 µM
- IC50 [3]: 71 µM

SMILES: COC(=O)c1ccc(-c2nn(C)/c(=N/C3CCCCC3)s2)cc1
- IC50 [3]: 95.5 µM

SMILES: Cn1nc(-c2ccc(Cl)cc2)s/c1=N\c1ccc(F)cc1
- IC50 (Phosphodiesterase 1): 85.68 µM
- IC50 [1]: 101 µM
- IC50 [2]: 2.2 µM
- IC50 [3]: > 101 µM
- IC50 [4]: > 101 µM

SMILES: CC(=O)Nc1ccc(-c2nn(C)/c(=N/C3CCCCC3)s2)cc1
- IC50 [3]: 34.2 µM

SMILES: Cn1nc(-c2ccc(C(N)=O)c(N)c2)s/c1=N\C1CCCCC1
- IC50 [2]: 0.08 µM
- IC50 [3]: 26 µM

SMILES: Cn1nc(-c2ccc(Cl)cc2)s/c1=N\C(C)(C)CO
- IC50 [2]: 1.9 µM
- IC50 [3]: 37 µM

SMILES: Cc1cccc(C(=O)O)c1/N=c1\sc(-c2ccc(Cl)cc2)nn1C
- IC50 (Phosphodiesterase 1): 14.06 µM
- IC50 [1]: 23.6 µM
- IC50 [2]: 1.37 µM
- IC50 [3]: 20.5 µM
- IC50 [4]: 20.5 µM

SMILES: Cn1nc(-c2ccc(Cl)cc2)s/c1=N\c1cccc(C#N)c1
- IC50 (Phosphodiesterase 1): > 101 µM
- IC50 [1]: > 101 µM
- IC50 [2]: 5.7 µM
- IC50 [3]: 36.3 µM
- IC50 [4]: 47.2 µM

SMILES: CCC(CC)/N=c1\sc(-c2ccc(Cl)cc2)nn1C
- IC50 [2]: 5.6 µM
- IC50 [3]: > 101 µM

SMILES: Cn1nc(-c2ccc(Cl)cc2)s/c1=N\C1CCC(N)CC1 (stereo unspecified)
- IC50 [2]: 5.9 µM
- IC50 [3]: > 101 µM

SMILES: Cn1nc(-c2ccc(Cl)cc2)s/c1=N\C1CCCCCCC1
- IC50 [2]: 1.65 µM
- IC50 [3]: > 101 µM

SMILES: Cn1nc(-c2ccc(C(=O)O)cc2)s/c1=N\C1CCCCC1
- IC50 [3]: 32.2 µM

SMILES: CC(C)/N=c1\sc(-c2ccc(Cl)cc2)nn1C
- IC50 [2]: 3.9 µM
- IC50 [3]: 17 µM

The remaining lines, values ahead:

- IC50 [2]: 0.14 µM
- IC50 [3]: 19 µM
SMILES: COC(=O)c1cccc(-c2nn(C)/c(=N/C3CCCCC3)s2)c1

- IC50 [3]: > 101 µM
SMILES: Cn1nc(-c2ccc(Cl)cc2)s/c1=N\C1CC2CCC1C2 (stereo unspecified)

- IC50 [2]: 0.09 µM
- IC50 [3]: 19.3 µM
SMILES: Cn1nc(-c2cccc(C(N)=O)c2)s/c1=N\C1CCCCC1

- IC50 (Phosphodiesterase 1): 5.23 µM
- IC50 [1]: 3.97 µM
- IC50 [2]: 0.15 µM
- IC50 [3]: 7.05 µM
- IC50 [4]: 5.58 µM
SMILES: Cn1nc(-c2ccc(Cl)cc2)s/c1=N\c1ccc(O)c(C(=O)O)c1

- IC50 [3]: 15 µM
SMILES: Cn1nc(-c2cccc(S(N)(=O)=O)c2)s/c1=N\C1CCCCC1

- IC50 [2]: 0.93 µM
- IC50 [3]: 44.7 µM
SMILES: Cc1cc(-c2nn(C)/c(=N/C3CCCCC3)s2)ccc1C(N)=O

- IC50 [2]: 7.5 µM
- IC50 [3]: 30 µM
SMILES: COC(=O)c1ccccc1-c1nn(C)/c(=N/C2CCCCC2)s1

- IC50 [2]: 0.02 µM
- IC50 [3]: 5.84 µM
SMILES: CCNS(=O)(=O)c1cc(-c2nn(C)/c(=N/C3CCCCC3)s2)ccc1Cl

- IC50 [2]: 0.06 µM
- IC50 [3]: 15.3 µM
SMILES: Cn1nc(-c2ccc(C(N)=O)cc2)s/c1=N\C1CCCCC1

- IC50 [2]: 5.9 µM
- IC50 [3]: 79 µM
SMILES: Cn1nc(-c2ccc(Cl)cc2)s/c1=N\C1CN2CCC1C2 (stereo unspecified)

- solubility [5]: 83 µg/mL (≈ 214 µM)
- IC50 [2]: 0.06 µM
- IC50 [3]: 33.3 µM
SMILES: CN(C)CCNC(=O)c1ccc(-c2nn(C)/c(=N/C3CCCCC3)s2)cc1

- IC50 [3]: 22.3 µM
SMILES: Cn1nc(-c2cccc(C(=O)O)c2)s/c1=N\C1CCCCC1

- IC50 [3]: 40 µM
SMILES: Cn1nc(-c2ccccc2Cl)s/c1=N\C1CCCCC1

- IC50 [2]: 4 µM
- IC50 [3]: > 101 µM
SMILES: Cn1nc(-c2ccc(Cl)cc2)s/c1=N\C1(CO)CCCC1

- IC50 [2]: 0.56 µM
- IC50 [3]: 25.7 µM
SMILES: Cn1nc(-c2ccc(N)cc2)s/c1=N\C1CCCCC1

- IC50 [2]: 0.02 µM
- IC50 [3]: > 101 µM
SMILES: Cn1nc(-c2ccc3c(N)ncnc3c2)s/c1=N\C1CCCCC1

- IC50 (Phosphodiesterase 1): > 101 µM
- IC50 [1]: > 101 µM
- IC50 [2]: 6.6 µM
- IC50 [3]: > 101 µM
- IC50 [4]: > 101 µM
SMILES: Cn1nc(-c2ccc(Cl)cc2)s/c1=N\c1cccc(F)c1

- IC50 [2]: 0.06 µM
- IC50 [3]: 11.9 µM
SMILES: COc1c(O)cc(-c2nn(C)/c(=N/C3CCCCC3)s2)cc1O

- IC50 [3]: 22.2 µM
SMILES: Cn1nc(-c2cccc(O)c2)s/c1=N\C1CCCCC1
